Experimental data reported in ChEMBL document CHEMBL3301472, “MMV Malaria Box HIV and cytotoxicity screening”.

Experiments:
[1] = MMV: MTT Cytotoxicity Assay Day 7 pi of Assay #11 (NO washout), U87-CD4-CXCR4 cells, % cell death @ 5mM compound; assay type: toxicity, cell-based; details: human, u87-cd4-cxcr4, 5000 µM
[2] = system: Human immunodeficiency virus 1; test: MMV: HIV CXCR4-tropic env NL4-3 pseudovirus assay produces luciferase signal in lieu of replicating viral particles Day 3 pi, U87-CD4-CXCR4, % inhibition at 5 mM compound; assay type: functional; parameters: dose or concentration left out as unconfirmed; details: Human immunodeficiency virus 1, NL4-3, U87.CD4.CXCR4, 72 h
[3] = MMV: MTT Cytotoxicity Assay Day 7 pi of Assay #6 (compound washed out Day 1 pi), U87-CD4-CCR5 cells, % cell death @ 5mM compound; assay type: toxicity, cell-based; details: human, u87-cd4-ccr5, 5000 µM
[4] = MMV: MTT Cytotoxicity Assay Day 7 pi of Assay #10 (NO washout), U87-CD4-CCR5 cells, % cell death @ 5mM compound; assay type: toxicity, cell-based; details: human, u87-cd4-ccr5, 5000 µM
[5] = MMV: MTT Cytotoxicity Assay Day 7 pi of Assay #7 (compound washed out Day 1 pi), U87-CD4-CXCR4 cells, % cell death @ 5mM compound; assay type: toxicity, cell-based; details: human, u87-cd4-cxcr4, 5000 µM
[6] = system: Human immunodeficiency virus 1; test: MMV: HIV JRFL CCR5-tropic replication-competent virus, NO washout, P24 ELISA Day 7 pi, U87-CD4-CCR5, % inhibition at 5 mM compound; assay type: functional; parameters: dose or concentration left out as unconfirmed; details: Human immunodeficiency virus 1, JR-FL, U87/CD4/CCR5, 168 h
[7] = MMV: MTT Cytotoxicity Assay Day 3 pi, U87-CD4-CCR5 cells, % cell death @ 5mM compound; assay type: toxicity, cell-based; details: human, u87-cd4-ccr5, 5000 µM
[8] = MMV: MTT Cytotoxicity Assay Day 3 pi, U87-CD4-CXCR4 cells, % cell death @ 5mM compound; assay type: toxicity, cell-based; details: human, u87-cd4-cxcr4, 5000 µM

SMILES | % Cell Death [1] | inhibition [2] [%] | % Cell Death [3] | % Cell Death [4] | % Cell Death [5] | inhibition [6] [%] | % Cell Death [7] | % Cell Death [8]
CN(C)CCCNc1c2ccccc2nc2ccccc12 | -4 | 1 | 8 | 30 | 15 | 3 | 30 | 21
Cc1ccc(C(=O)c2oc3ccc4c(C)cc(=O)oc4c3c2C)cc1 | 92 |  | 7 | 83 | 22 | 8 | 59 | 94
CCN1CCN(c2cc(C)c3cc(NC(=O)c4ccc(OC)c(OC)c4)ccc3n2)CC1 | 55 |  | 93 | 43 | 61 | -2 | 95 | 36
Cc1cc(N(C)C)nc(Nc2ccc(NC(=O)Nc3ccccc3)cc2)n1 | -30 |  | -5 | 18 | -7 | 4 | 12 | 40
CCCc1c(C)nc2ccccc2c1O | 51 | 9 | 22 | 18 | 31 | -2 | 5 | 8
